Columns and labels:
[1] = system: central and peripheral neurons grown in culture; settings: death induced by reduced phosphatidyl inositol pathway activity (Cross et al.); cited from earlier work
[2] = system: GSK-3; settings: literature report; cited from earlier work
[3] = system: β-catenin; experiment: β-catenin protein levels in ciliary body and trabecular meshwork of perfused anterior segments; design: species or system human; settings: ciliary body and trabecular meshwork (TM) after FRP-1 perfusion
Excerpt: (§1) Recently it has been discovered that frizzled related protein (FRP) is differentially expressed in a number of glaucomatous trabecular meshwork cell lines. […] The decreased flow rate in the cultured anterior segments models an increase in resistance to outflow (increase in intraocular pressure) in intact eye.

[4] = system: perfused human ocular anterior segments; experiment: Outflow rate in perfused human ocular anterior segments maintained in culture
Method: as §1
Human ocular anterior segments are perfused with Dulbecco's modified Eagle's medium (DMEM) at a constant pressure of 11 mm Hg. The outflow rate of each eye is measured by weighing its reservoir at specified periods. After a stabilization period, the eyes are perfused with either vehicle or FRP-1 (10 μg/ml) and their outflow rates monitored for 2-5 days. […] Inhibitor is added and the anterior segment is perfused for an additional 2-4 days. Outflow rate is measured by weighing its reservoir at specific periods.

Molecule	protection of neurons from death [1]	GSK-3 inhibition [2]	also measured
O=C1NC(=O)C(c2ccccc2[N+](=O)[O-])=C1Nc1ccc(O)c(Cl)c1 [SB-415286]	protected both central and peripheral neurons	–	–
Cn1cc(C2=C(c3ccc(Cl)cc3Cl)C(=O)NC2=O)c2ccccc21 [SB216763]	protected both central and peripheral neurons	–	–
Cn1cc(C2=C(c3cn(CCCSC(=N)N)c4ccccc34)C(=O)NC2=O)c2ccccc21 [Ro 31-8220]	–	inhibitors of GSK-3	–
CN(C)CCCn1cc(C2=C(c3c[nH]c4ccccc34)C(=O)NC2=O)c2ccccc21 [GF1092]	–	inhibitors of GSK-3	–
FRP-1: frizzled related protein, secreted protein that antagonizes the Wnt signaling pathway (protein, UniProt Q8N474 32-314, looked up) Secreted frizzled-related …: SEYDYVSFQSDIGPYQSGRFYTKPPQCVDIPADLRLCHNVGYKKMVLPNLLEHETMAEVKQQASSWVPLLNKNCHAGTQVFLCSLFAPVCLDRPIYPCRWLCEAVRDSCEPVMQFFGFYWPEMLKCDKFPEGDVCIAMTPPNATEASKPQGTTVCPPCDNELKSEAIIEHLCASEFALRMKIKEVKKENGDKKIVPKKKKPLKLGPIKKKDLKKLVLYLKNGADCPCHQLDNLSHHFLIMGRKVKSQYLLTAIHKWDKKNKEFKNFMKKMKNHECPTFQSVFK	–	–	β-catenin protein levels [3]: decrease in β-catenin protein levels; aqueous humor outflow ([4]; FRP-1 10 μg/ml, constant pressure 11 mm Hg, outflow monitored 2-5 days): decrease in aqueous humor outflow; flowrate ([4]; perfusion of FRP-1 through perfused human ocular anterior segments in culture): decrease in flowrate
